Laboratory results: article PMC3761409 (Journal of molecular recognition : JMR, 2013)
No end group written: not given here.

B1: full-length Bad: full-length Bad protein (Bcl2-associated death promoter) (protein, UniProt Q92934 1-168, looked up)
chain: MFQIPEFEPSEQEDSSSAERGLGPSPAGDGPSGSGKHHRQAPGLLWDASHQQEQPTSSSHHGGAGAVEIRSRHSSYPAGTEDDEGMGEEPSPFRGRSRSAPPNLWAAQRYGRELRRMSDEFVDSFKKGLPRPKSAGTATQMRQSSSWTRVFQSWWDRNLGRGSSAPSQ
modifications: full-length

Columns and labels:
[1] = molecular target: T1, Human Bcl2 (residues 1-205) (Homo sapiens, UniProt P10415); test: Isothermal titration calorimetry; assay type: binding; details: for Kd: SD
T1 sequence (P10415 1-205): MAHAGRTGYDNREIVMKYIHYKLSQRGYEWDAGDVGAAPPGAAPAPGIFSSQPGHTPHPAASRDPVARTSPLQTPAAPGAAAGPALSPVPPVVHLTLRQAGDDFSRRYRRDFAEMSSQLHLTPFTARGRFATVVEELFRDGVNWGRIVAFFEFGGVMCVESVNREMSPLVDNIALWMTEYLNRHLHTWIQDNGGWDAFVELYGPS

[2] = molecular target: T1, Human Bcl2 (residues 1-205); test: ITC: effect of NaCl concentration on binding; details: Sodium phosphate buffer, NaCl 0-500mM, 25°C, pH 7
[3] = molecular target: Bcl2 (Homo sapiens, UniProt P10415); test: In vitro binding of full-length Bad to Bcl2; details: unpublished observations
Bcl2, sequence (P10415 whole entry): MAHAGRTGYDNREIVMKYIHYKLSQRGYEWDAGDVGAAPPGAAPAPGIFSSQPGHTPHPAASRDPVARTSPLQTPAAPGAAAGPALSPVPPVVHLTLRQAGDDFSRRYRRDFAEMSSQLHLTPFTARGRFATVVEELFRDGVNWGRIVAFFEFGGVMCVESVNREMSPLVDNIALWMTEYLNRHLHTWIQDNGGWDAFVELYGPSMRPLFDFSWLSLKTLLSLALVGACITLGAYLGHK

[4] = molecular target: BclXL (Homo sapiens, UniProt Q07817); test: In vitro binding of full-length Bad to BclXL; details: unpublished observations
BclXL, sequence (Q07817 whole entry, species assumed): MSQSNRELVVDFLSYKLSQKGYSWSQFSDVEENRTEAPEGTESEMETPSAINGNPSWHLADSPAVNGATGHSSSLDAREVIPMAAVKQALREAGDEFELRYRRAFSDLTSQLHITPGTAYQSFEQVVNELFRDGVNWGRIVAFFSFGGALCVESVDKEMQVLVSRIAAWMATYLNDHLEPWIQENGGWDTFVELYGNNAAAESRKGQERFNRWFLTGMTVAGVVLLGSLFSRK

| Molecule | Kd [1] | effect of increasing NaCl concentration on the binding (Kd) to Bcl2 [2] | binding to Bcl2 under varied conditions ([1]; ITC, temperature, buffer or solution pH varied) | affinity of the full-length protein toward Bcl2 [3] | affinity of the full-length protein toward BclXL [4] |
| --- | --- | --- | --- | --- | --- |
| CC[C@H](C)[C@H](NC(=O)[C@H](C)NC(=O)[C@H](CC(C)C)NC(=O)[C@H](CCC(N)=O)NC(=O)[C@H](CCCNC(=N)N)NC(=O)CNC(=O)[C@@H](NC(=O)[C@H](CCC(N)=O)NC(=O)CNC(=O)[C@H](CCSC)NC(=O)[C@@H](NC(=O)[C@@H](N)CO)[C@@H](C)O)C(C)C)C(=O)N[C@H](C(=O)NCC(=O)N[C@@H](CC(=O)O)C(=O)N[C@@H](CC(=O)O)C(=O)N[C@H](C(=O)N[C@@H](CC(N)=O)C(=O)N[C@@H](CCCNC(=N)N)C(=O)N[C@@H](CCCNC(=N)N)C(=O)O)[C@@H](C)CC)[C@@H](C)CC [Bak] | 1300 ± 250 nM | largely independent of salt concentration | – | – | – |
| CC(C)C[C@H](NC(=O)[C@H](C)NC(=O)[C@H](CCCCN)NC(=O)[C@H](CC(C)C)NC(=O)[C@H](CCCNC(=N)N)NC(=O)[C@H](C)NC(=O)[C@H](C)NC(=O)[C@@H](NC(=O)[C@H](CC(C)C)NC(=O)[C@H](CCC(N)=O)NC(=O)[C@H](C)NC(=O)[C@H](C)NC(=O)[C@@H](N)CO)[C@@H](C)O)C(=O)NCC(=O)N[C@@H](CC(=O)O)C(=O)N[C@@H](CCC(=O)O)C(=O)N[C@@H](CC(C)C)C(=O)N[C@@H](Cc1c[nH]cn1)C(=O)N[C@@H](CCC(N)=O)C(=O)N[C@@H](CCCNC(=N)N)C(=O)O [Hrk] | 25000 ± 8800 nM | enhancement of between two-to-five folds | – | – | – |
| ASTKKLSESLKRIGDELDSN [Bax] | 3100 ± 660 nM | enhancement of between two-to-five folds | – | – | – |
| DIIRNIARHLAQVGDSMDRS [Bid] | 2100 ± 410 nM | largely independent of salt concentration | – | – | – |
| EGSDALALRLACIGDEMDVS [Bik] | 3780 ± 790 nM | enhancement of between two-to-five folds | – | – | – |
| ELEVECATQLRRFGDKLNFR [Noxa] | – | – | did not observe the binding | – | – |
| QAEVQIARKLQCIADQFHRL [Bmf] | 300 ± 70 nM | little or negligible effect | – | – | – |
| QWAREIGAQLRRMADDLNAQ [Puma] | 370 ± 70 nM | little or negligible effect | – | – | – |
| QWAREIGAQLRRMGDDLNAQ [Puma_A+4G] | 2120 ± 420 nM | – | – | – | – |
| SAAQLTAARLKALADELHQR [Hrk_G+4A] | 3840 ± 710 nM | – | – | – | – |
| WAAQRYGRELRRMSDEFVDS [Bad] | 4140 ± 800 nM | enhancement of between two-to-five folds | – | – | – |
| B1 | – | – | – | poor affinity | poor affinity |
